Results published in ChEMBL document CHEMBL1201862, “PubChem BioAssay data set” (2004).
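Each compound was tested at five concentrations against cells in 96-well plates for 48 hours. GI50 marks 50% less growth.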 The source made the active and inactive calls. Rule as the data show it: active = GI50 up to about 1.1 µM and inactive = higher.

What was measured:
Assay in all cases: inhibition of tumour cell growth, NCI panel, 48 h
[1] = tested on: ACHN
[2] = tested on: COLO 205
[3] = tested on: HL-60
[4] = tested on: HOP-62
[5] = tested on: HOP-92
[6] = tested on: IGROV-1
[7] = tested on: LOX IMVI
[8] = tested on: M14
[9] = tested on: NCI-H226
[10] = tested on: OVCAR-4
[11] = tested on: SF-295
[12] = tested on: SK-MEL-28
[13] = tested on: SK-MEL-5
[14] = tested on: SNB-75
[15] = tested on: U-251
[16] = tested on: UACC-62
[17] = tested on: UO-31
[18] = tested on: NCI-H23

Measured: GI50

C=CCC(OCCOCC)c1cc(OCCOCC)ccc1OC (stereo unspecified)
inactive: [1] > 100 µM | [2] > 100 µM | [3] > 100 µM | [4] > 100 µM | [5] > 100 µM | [6] > 100 µM | [7] > 100 µM | [8] > 100 µM | [9] > 100 µM | [10] > 100 µM | [11] > 100 µM | [12] > 100 µM | [13] > 100 µM | [14] > 100 µM | [15] > 100 µM | [16] > 100 µM | [17] > 100 µM

CCOc1ccc(NCC2CC/C(=C\c3ccccc3OC)C2=O)cc1 (stereo unspecified)
inactive: [1] 14.6 µM | [2] 2.29 µM | [3] 4.3 µM | [4] 27.4 µM | [5] 19.5 µM | [6] 10.6 µM | [7] 6.61 µM | [8] 3.64 µM | [9] 18.6 µM | [18] 19.2 µM | [10] 6.38 µM | [11] 18 µM | [12] 11 µM | [13] 16.1 µM | [14] 14.6 µM | [15] 14.3 µM | [16] 11.8 µM | [17] 13.4 µM

COc1ccc(/N=N/c2c(N)nn(C)c2N)cc1
inactive: [1] > 100 µM | [2] > 100 µM | [3] > 100 µM | [4] > 100 µM | [5] > 100 µM | [6] > 100 µM | [7] > 100 µM | [8] > 100 µM | [9] > 100 µM | [18] > 100 µM | [10] > 100 µM | [11] > 100 µM | [12] > 100 µM | [13] > 100 µM | [14] 51.6 µM | [15] > 100 µM | [16] > 100 µM | [17] > 100 µM

O=C(/C=C/c1ccccc1)c1ccc(NCc2nc3ccccc3[nH]2)cc1
inactive: [1] 7.66 µM | [2] 3.21 µM | [3] 2.33 µM | [4] 11.2 µM | [5] 6.18 µM | [6] 6.56 µM | [7] 1.69 µM | [8] 9.02 µM | [9] 4.19 µM | [18] 2.55 µM | [10] 9.23 µM | [11] 3.48 µM | [12] 18 µM | [13] 2.45 µM | [14] 4.61 µM | [15] 1.91 µM | [16] 8.05 µM | [17] 7.21 µM
